Laboratory results as given in patent US10206907B2, “Compounds useful for the treatment of degenerative and inflammatory diseases” (GALAPAGOS NV, priority 2008, dated 2019).
pEC50, pIC50: −log10 of the molar value.

Tests used:
[1] = test system: MMP13 in SW1353 cells; assay: OSM/IL-1β signaling assay (MMP13 levels in SW1353 cells); assay type: cell-based; settings: Homo sapiens; SW1353 cells, OSM and IL-1β triggered, MMP13 levels 48 hours after triggering; read-out: MMP13 EC50;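 also: secreted MMP13 captured by antibody, activated with APMA and its activity read by fluorescence, inhibition scaled between vehicle-treated triggered wells (0%) and untriggered wells (100%)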
Description: The cells were seeded in 96 well plates at 15,000 cells/well in a volume of 120 μL DMEM (Invitrogen) containing 10% (v/v) FBS and 1% penicillin/streptomycin (InVitrogen) incubated at 37° C. […] MMP13 activity was measured using an antibody capture activity assay. […] Next the wells were washed twice with PBS+0.05% Tween followed by MMP13 activation by addition of 35 μL of a 1.5 mM 4-Aminophenylmercuric acetate (APMA) (Sigma, A9563) solution and incubation at 37° C. for 1 hour. […] Percentage inhibition=((fluorescence determined in the presence of vehicle−fluorescence determined for sample with test compound present) divided by (fluorescence determined in the presence of vehicle−fluorescence determined for sample without trigger))*100%.

[2] = Microsomal stability, human liver microsomes; assay type: in vitro ADME; settings: percentage of compound remaining after 60 minutes, 3 μM compound
Description: (§1) 40 μL of deionised water was added to a well of a polypropylene Matrix 2D barcode labelled storage tube (Thermo Scientific) and pre-incubated at 37° C.
(§2) A co-factor containing MgCl2, glucose-6-phosphate and NADP+ was prepared in deionised water and placed on ice before use.
(§3) A final working solution containing liver microsomes (Xenotech of a species of interest (human, mouse, rat, dog), previously described G6PDH and co-factors was prepared and this mix was incubated for no longer than 20 minutes at room temperature.
(§4) 30 μL of the pre-heated compound dilution was added to 40 μL of pre-heated water in the Matrix tubes and 30 μL of the microsomal mix was added.
(§5) To measure percentage remaining of compound at time zero MeOH or ACN was added (1:1) to the well before adding the microsomal mix.
(§6) The samples which were not stopped are incubated at 37° C., 300 rpm and after 1 hour of incubation the reaction was stopped with MeOH or ACN (1:1).
(§7) After stopping the reaction the samples were mixed and placed on ice for 30 min to precipitate the proteins.
(§8) The samples were analyzed on LCMS with a flow rate of 1 mL/min. Solvent A was 15 mM ammonia and solvent B was methanol or acetonitrile, depending on the stop solution used. […] The percentage remaining after 1 hour incubation was calculated from time 0 and was calculated as the percentage remaining.
(§9) The data on microsomal stability are expressed as a percentage of the total amount of compound remaining after 60 minutes.

[3] = target: Recombinant human JAK2 catalytic domain (Homo sapiens (Human), UniProt O60674); assay: JAK2 inhibition assay; assay type: biochemical; settings: semi-quantitative score
How it was run: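 Radiometric kinase reactions ran for 90 min at 30 °C and were stopped with phosphoric acid, then washed and counted by scintillation. Percent inhibition was set relative to vehicle and to 10 μM staurosporine background. IC50 was derived from dose-dilution series.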

[4] = test system: JAK-STAT signalling in HeLa cells; assay: JAK-STAT signalling assay (OSM-triggered pSTAT1(2)-luciferase reporter in HeLa cells); assay type: cell-based; settings: Homo sapiens; HeLa cells, OSM-triggered pSTAT1(2)-luciferase reporter; read-out: STAT signalling EC50
How it was run: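 HeLa cells transiently transfected with pSTAT1(2)-luciferase reporter plus LacZ internal control, incubated overnight at 37 °C, 10% CO2, then OSM-stimulated with compound. Luciferase read by Steadylite luminescence and normalised to β-galactosidase (ONPG); percent inhibition from controls, EC50 from dose-response.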

[5] = Microsomal stability, rat liver microsomes; assay type: in vitro ADME; settings: percentage of compound remaining after 60 minutes, 3 μM compound
Description: as §1, §2, §3, §4, §5, §6, §7, §8, §9

[6] = target: Recombinant human JAK1 catalytic domain (Homo sapiens (Human), UniProt P23458); assay: JAK1 inhibition assay; assay type: biochemical; settings: semi-quantitative score
How it was run: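 Radiometric assay read by scintillation counting after phosphoric-acid washes. Percent inhibition calculated from cpm relative to vehicle and 10 μM staurosporine control. IC50 derived from compound dose-dilution series.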

Recombinant human JAK2 catalytic domain, sequence (O60674 808-1132): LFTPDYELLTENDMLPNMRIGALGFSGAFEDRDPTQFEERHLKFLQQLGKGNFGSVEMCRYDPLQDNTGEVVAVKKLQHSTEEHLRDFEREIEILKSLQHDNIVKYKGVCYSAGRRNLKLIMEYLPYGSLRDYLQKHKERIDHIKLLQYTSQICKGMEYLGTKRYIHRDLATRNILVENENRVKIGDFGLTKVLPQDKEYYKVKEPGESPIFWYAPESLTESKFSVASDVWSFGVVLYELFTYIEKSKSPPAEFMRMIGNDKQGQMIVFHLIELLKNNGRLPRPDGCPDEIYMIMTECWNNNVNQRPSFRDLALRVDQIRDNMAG
Recombinant human JAK1 catalytic domain, sequence (P23458 850-1154): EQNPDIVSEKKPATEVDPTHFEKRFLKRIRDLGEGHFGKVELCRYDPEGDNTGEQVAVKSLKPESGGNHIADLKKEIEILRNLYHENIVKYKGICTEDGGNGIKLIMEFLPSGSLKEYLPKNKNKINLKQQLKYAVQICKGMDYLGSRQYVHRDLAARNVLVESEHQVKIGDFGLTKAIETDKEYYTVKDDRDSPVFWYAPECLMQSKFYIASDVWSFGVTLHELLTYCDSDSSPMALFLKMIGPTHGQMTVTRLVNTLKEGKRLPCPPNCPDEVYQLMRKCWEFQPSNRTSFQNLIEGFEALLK

Compound	pEC50 [1]	Microsomal Stability Human (%) [2]	pIC50 [3]	pEC50 [4]	Microsomal Stability Rat (%) [5]	pIC50 [6]
N#CCc1ccccc1NCc1ccc(-c2cccc3nc(NC(=O)C4CC4)nn23)cc1 [Compound 225, Cyclopropanecarboxylic acid (5-{4-[(2-cyanomethyl-phenylamino)-methyl]-phenyl}-[1,2,4]triazolo[1,5-a]pyridin-2-yl)-amide]	6.30 to 9.00	* (* 0-25)	> 7.00	6.30 to 7.00	* (* 0-25)	> 7.00
O=C(Cc1ccccc1)Nc1ccc(-c2cccc3nc(NC(=O)C4CC4)nn23)cc1 [Compound 23, N-(5-(4-(2-phenylacetamido)phenyl)-[1,2,4]triazolo[1,5-a]pyridin-2-yl)cyclopropanecarboxamide]	< 6.00	* (* 0-25)	6.30 to 7.00	< 6.00	** (** 26-50)	> 7.00
CN(C(=O)c1ccc(-c2cccc3nc(NC(=O)C4CC4)nn23)cc1)C1CCS(=O)(=O)C1 (stereo not drawn) [Compound 273, 4-[2-(Cyclopropanecarbonyl-amino)-[1,2,4]triazolo[1,5-a]pyridin-5-yl]-N-(1,1-dioxo-tetrahydrothiophen-3-yl)-N-methyl-benzamide]	< 6.00	**** (**** 76-100)	> 7.00	< 6.00	**** (**** 76-100)	> 7.00
O=C(Nc1nc2cccc(-c3ccc(CC(=O)N4CCS(=O)(=O)CC4)cc3)n2n1)C1CC1 [Compound 267, Cyclopropanecarboxylic acid (5-{4-[2-(1,1-dioxo-thiomorpholin-4-yl)-2-oxo-ethyl]-phenyl}-[1,2,4]triazolo[1,5-a]pyridin-2-yl)-amide]	< 6.00	**** (**** 76-100)	6.30 to 7.00	< 6.00	**** (**** 76-100)	> 7.00
N#CCc1ccc(NCc2ccc(-c3cccc4nc(NC(=O)C5CC5)nn34)cc2)cc1 [Compound 224]	< 6.00	* (* 0-25)	> 7.00	6.30 to 7.00	* (* 0-25)	> 7.00
O=C(Nc1nc2cccc(-c3ccc(OCc4ccc(Cl)nc4)cc3)n2n1)C1CC1 [Compound 198, Cyclopropanecarboxylic acid {5-[4-(6-chloro-pyridin-3-ylmethoxy)-phenyl]-[1,2,4]triazolo[1,5-a]pyridin-2-yl}-amide]	< 6.00	*** (*** 51-75)	> 7.00	6.30 to 7.00	*** (*** 51-75)	> 7.00
O=C(Nc1nc2cccc(-c3ccc(-c4ccccc4)cc3)n2n1)C1CC1 [Compound 7, N-(5-(biphenyl-4-yl)-[1,2,4]triazolo[1,5-a]pyridin-2-yl)cyclopropanecarboxamide]	< 6.00	** (** 26-50)	6.30 to 7.00	< 6.00	** (** 26-50)	> 7.00

Next, values leading:

pEC50 [1]	Microsomal Stability Human (%) [2]	pIC50 [3]	pEC50 [4]	Microsomal Stability Rat (%) [5]	pIC50 [6]	Compound
< 6.00	* (* 0-25)	6.30 to 7.00	6.00 to 6.30	**** (**** 76-100)	> 7.00	O=C(Nc1nc2cccc(-c3ccc(CC(=O)N4CCCCC4)cc3)n2n1)C1CC1 [Compound 266, Cyclopropanecarboxylic acid {5-[4-(2-oxo-2-piperidin-1-yl-ethyl)-phenyl]-[1,2,4]triazolo[1,5-a]pyridin-2-yl}-amide]
6.00 to 6.30	*** (*** 51-75)	> 7.00	< 6.00	** (** 26-50)	> 7.00	O=C(Nc1nc2cccc(-c3ccc(CN4CCC(F)CC4)cc3)n2n1)C1CC1 [Compound 233, Cyclopropanecarboxylic acid {5-[4-(4-fluoro-piperidin-1-ylmethyl)-phenyl]-[1,2,4]triazolo[1,5-a]pyridin-2-yl}-amid]
6.30 to 9.00	*** (*** 51-75)	> 7.00	6.30 to 7.00	** (** 26-50)	> 7.00	O=C(Nc1nc2cccc(-c3ccc(CNc4ccc(Cl)cc4F)cc3)n2n1)C1CC1 [Compound 212, Cyclopropanecarboxylic acid (5-{4-[(4-chloro-2-fluoro-phenylamino)-methyl]-phenyl}-[1,2,4]triazolo[1,5-a]pyridin-2-yl)-amide]
< 6.00	*** (*** 51-75)	6.30 to 7.00	< 6.00	**** (**** 76-100)	> 7.00	O=C(Nc1ccc(-c2cccc3nc(NC(=O)C4CC4)nn23)cc1)c1ccccc1 [Compound 21, N-(4-(2-(cyclopropanecarboxamido)-[1,2,4]triazolo[1,5-a]pyridin-5-yl)phenyl)benzamide]
< 6.00	* (* 0-25)	> 7.00	< 6.00	* (* 0-25)	> 7.00	CC(=O)N(Cc1cccnc1)c1ccc(-c2cccc3nc(NC(=O)C4CC4)nn23)cc1 [Compound 202, Cyclopropanecarboxylic acid {5-[4-(acetyl-pyridin-3-ylmethyl-amino)-phenyl]-[1,2,4]triazolo[1,5-a]pyridin-2-yl}-amide]
6.00 to 6.30	* (* 0-25)	> 7.00	6.00 to 6.30	* (* 0-25)	> 7.00	O=C(Nc1nc2cccc(-c3ccc(CNc4ccccn4)cc3)n2n1)C1CC1 [Compound 244, Cyclopropanecarboxylic acid (5-[4-(pyridin-2-ylaminomethyl)-phenyl]-[1,2,4]triazolo[1,5-a]pyridin-2-yl}-amide]
6.00 to 6.30	* (* 0-25)	> 7.00	6.30 to 7.00	* (* 0-25)	> 7.00	O=C(Nc1nc2cccc(-c3ccc(CNc4c(F)cccc4F)cc3)n2n1)C1CC1 [Compound 246, Cyclopropanecarboxylic acid (5-{4-[(2,6-difluoro-phenylamino)-methyl]-phenyl}-[1,2,4]triazolo[1,5-a]pyridin-2-yl)-amide]
< 6.00	*** (*** 51-75)	6.30 to 7.00	6.00 to 6.30	**** (**** 76-100)	> 7.00	O=C(Nc1nc2cccc(-c3ccc(CN4CCN(CC(F)(F)F)CC4)cc3)n2n1)C1CC1 [Compound 241, Cyclopropanecarboxylic acid (5-{4-[4-(2,2,2-trifluoro-ethyl)-piperazin-1-ylmethyl]-phenyl}-[1,2,4]triazolo[1,5-a]pyridin-2-yl)-amide]
6.00 to 6.30	* (* 0-25)	> 7.00	6.30 to 7.00	* (* 0-25)	> 7.00	O=C(Nc1nc2cccc(-c3ccc(CNc4ccccc4F)cc3)n2n1)C1CC1 [Compound 226, Cyclopropanecarboxylic acid (5-{4-[(2-fluoro-phenylamino)-methyl]-phenyl}-[1,2,4]triazolo[1,5-a]pyridin-2-yl)-amide]
< 6.00	**** (**** 76-100)	6.30 to 7.00	< 6.00	**** (**** 76-100)	> 7.00	O=C(Nc1nc2cccc(-c3ccc(OCc4ccc[n+]([O-])c4)cc3)n2n1)C1CC1 [Compound 196, Cyclopropanecarboxylic acid {5-[4-(1-hydroxy-pyridin-3-ylmethoxy)-phenyl]-[1,2,4]triazolo[1,5-a]pyridin-2-yl}-amide]
6.30 to 9.00	* (* 0-25)	> 7.00	6.00 to 6.30	* (* 0-25)	> 7.00	COc1ccc(NCc2ccc(-c3cccc4nc(NC(=O)C5CC5)nn34)cc2)cn1 [Compound 236, Cyclopropanecarboxylic acid (5-{4-[(6-methoxy-pyridin-3-ylamino)-methyl]-phenyl}-[1,2,4]triazolo[1,5-a]pyridin-2-yl)-amide]
